Drawing on patent publication US6632921B1, “Seryl-lysyl-based peptide and peptidomimetic inhibitors of N-myristoyl transferase as anti-infective agents” (G. D Searle & Co, priority 1995, dated 2003), this text covers EC50 for two compounds.

The structures appear in SMILES notation. Like-named read-outs stand apart in the source and are kept apart here.

The assay relates to Candida albicans, strain B311. Briefly: Antifungal susceptibility testing, microdilution broth, pH 5.4/30° C./YNB. The settings on record: B311, 24 h. It is filed as cell-based. As for the experimental part: Antifungal Screens were set up initially against Candida albicans, strain B311, and Cryotococcus neoformans, strain L210425. Both pathogens, (originally from the stock culture collection, Medical mycology research center, Washington university-Barnes hospital), were obtained from Dr.Kobayashi, Prof.of infectious diseases, Washington University, St.Louis, Mo.
All cultures are maintained at 30° C. on Sabouraud's dextrose agar slants and subcultured at monthly intervals to fresh medium. All inocula for susceptibility testing are prepared in yeast nitogen base(YNB, Difco) broth.
A loopful of growth from Sabouraud dextrose agar slant is inoculated into 4 ml of YNB broth media and incubated at 30° C. overnight (18-24 hrs) with constant agitation (Gyratory Shaker, New Brunswick Scientific). Prior to setting up susceptibility testing, the organisms are counted in a hemocytometer, and diluted as needed into assay media.
1) (Assay at DH 5.4/30° C. Incubation/YNB Media).
Antifungal assays were carried out initially by a modification of the method published by Jones, et. al; (1), and communicated to Searle by Dr. Kobayashi, Washington University. [R. N. Jones et al, Manual of Clinical Microbiology, 4th ed., (1985)]
The antifungal susceptibility testing consists of a microdilution broth procedure performed in 96 well microtiter plates (Costar, cat#3799). Briefly, test compounds from a 20 mM stock solution in DMSO are diluted into sterile, deionized water (final DMSO concentration not exceeding 1%), to yield 2× the desired concentration (100 uM, 10 uM and 1 uM for an initial screen, or a selected concentration range in serial 2 fold dilutions for EC50 determination). One hundred microliters (100 ul) of each concentration is dispensed into triplicate wells of a 96 well microtiter plate. Appropriate dilutions of a suspension of C.albicans (1×10^6 cells/ml) in 2× YNB is distributed into each of the wells, including growth control wells containing no test compound as well as control wells with 0.5% DMSO. Amphotericin B at 0.05, 1 and 5 ug/ml is included in each assay plate as a positive control. The plates are incubated at 30° C. and cell growth is scored by reading the absorbance at 590 nm on an Elisa plate reader(Dynatech, MR.5000).
For orientation: Broth dilution looks for growth in wells or tubes with falling amounts of substance.

Where [1] appears, read: pH 5.4, read-out: ACTIVITY (EC50) C.alb (B311).

Turning to `Cc1nccn1CCCCc1ccc(CC(=O)N[C@@H](CO)C(=O)N[C@@H](CCCCN)C(=O)N[C@@H](CC2CCCCC2)C(=O)O)cc1` [Example 2, L-Alanine, 3-cyclohexyl-N-[N^2-[N-[[4-[4-(2-Methyl-1H-imidazol-1-yl)butyl]phenyl]acetyl]-L-seryl]-L-lysyl]-, bis-trifluoroacetate], the EC50 by setting is: under setting [1], 35 µM; (pH 5.4, read-out: caEC50 24 hours) 35 µM.

On to `Cc1nccn1CCCCc1ccc(CC(=O)N[C@H](CO)C(=O)N[C@H](CCCCN)C(=O)N[C@H](CC2CCCCC2)C(=O)O)cc1` [Comparator Compound A, D-Alanine, 3-cyclohexyl-N-[N^2-[N-[[4-[4-(2-methyl-1H-imidazol-1-yl)butyl]phenyl]acetyl]-D-seryl]-D-lysyl]-, bis-trifluoroacetate], for which the EC50 by setting is: under setting [1], more than 400 µM; (read-out: caEC50 24 hours) more than 400 µM.
